Measurements from ChEMBL document CHEMBL1154867, “Cytotoxic halogenated metabolites from the Brazilian red alga Laurencia catarinensis” (J Nat Prod, 2010).
pIC50: −log10 of the molar value.

Key:
Format in all cases: functional, cell-based
[1] = system: A-431; experiment: Cytotoxicity against human A431 cells after 24 hrs by MTT assay; settings: A-431, 24 h
[2] = system: MCF7; experiment: Cytotoxicity against human MCF7 cells after 24 hrs by MTT assay; settings: MCF7, 24 h
[3] = system: HT-29; experiment: Cytotoxicity against human HT-29 cells after 24 hrs by MTT assay; settings: HT-29, 24 h

| SMILES | pIC50 [1] | pIC50 [2] | pIC50 [3] |
| --- | --- | --- | --- |
| CC(=O)O[C@H]1C[C@@](C)(Cl)[C@H](Br)C[C@@H]1[C@]1(C)OC(C)(C)[C@@H](Br)C[C@@H]1O | 4.88 | 4.93 | 4.91 |
| CC(=O)O[C@H]1C[C@H](Br)C(C)(C)O[C@@]1(C)[C@H]1C[C@@H](Br)[C@](C)(Cl)C[C@@H]1O | 4.14 | 4.13 | 4.15 |
| CC(=O)O[C@H]1C[C@@](C)(Cl)[C@H](Br)C[C@@H]1[C@]1(C)OC(C)(C)[C@@H](Br)C[C@@H]1OC(C)=O | < 4.00 | < 4.00 | < 4.00 |
| CC(=O)O[C@H]1C[C@@](C)(Cl)[C@H](Br)C[C@@H]1[C@@]1(C)CC[C@H](Br)C(C)(C)O1 | 4.26 | 4.28 | 4.31 |
| CC1(C)O[C@@](C)([C@@H]2CC[C@@](C)(Cl)[C@H](Br)C2)CC[C@H]1Br | < 4.00 | < 4.00 | < 4.00 |
| CO[C@@]1(C)OC(=O)C=C1[C@@H]1CC[C@@](C)(Cl)[C@H](Br)C1 (relative stereo) | 4.04 | 4.05 | 4.07 |
| CO[C@]1(C)OC(=O)C=C1[C@@H]1CC[C@@](C)(Cl)[C@H](Br)C1 (relative stereo) | < 4.00 | < 4.00 | < 4.00 |
| CC(=O)O[C@H]1C[C@H](Br)C(C)(C)O[C@@]1(C)[C@@H]1CC[C@@](C)(Cl)[C@H](Br)C1 [ACETYLCAESPITOL] | 4.76 | 4.75 | 4.79 |
| CC1(C)C=CC(=O)[C@](C)([C@@H]2CC[C@@](C)(Cl)[C@H](Br)C2)O1 [CAESPITENONE] | 4.67 | 4.71 | 4.72 |
| CC1(C)O[C@](C)([C@H]2CC[C@](C)(Cl)[C@@H](Br)C2)[C@H](O)C[C@H]1Br [CAESPITOL] | 4.99 | 5.01 | 5.12 |
| CC1(C)O[C@@](C)([C@@H]2CC[C@](C)(Br)[C@@H](Cl)C2)CC[C@@H]1Br [DEOXY ISOCAESPITOL] | 4.51 | 4.50 | 4.56 |
| CC1(C)O[C@@](C)([C@@H]2CC[C@@](C)(Cl)[C@H](Br)C2)CC[C@@H]1Br [DEOXYCAESPITOL] | 4.88 | 4.95 | 4.90 |
| C[C@]1(O)OC(=O)C=C1[C@@H]1CC[C@@](C)(Cl)[C@H](Br)C1 [FUROCAESPITANELACTOL] | < 4.00 | < 4.00 | < 4.00 |
| CC1(C)O[C@@](C)([C@@H]2CC[C@](C)(Br)[C@@H](Cl)C2)[C@@H](O)C[C@@H]1Br [ISOCAESPITOL] | < 4.00 | < 4.00 | < 4.00 |
| CCCCCCCCCCCCCCCCOP(=O)([O-])OCC[N+](C)(C)C [MILTEFOSINE] | 4.27 | 4.37 | 4.31 |
